Patent publication US7981873B1, “Use within transplantation surgery” (Corline Systems AB, priority 2000, dated 2011)

Tests used:
Assay type in all cases: cell-based
[1] = tested on: human islets in ABO-compatible fresh human blood; assay: Tubing loop model: human islet perifusion with ABO-compatible fresh human blood; parameters: TAT: unit not given here; details: after 60 min human islet perifusion, Mean ± SE(M)
Experimental: (§1) All the in vitro experiments for studies of islets contacting whole blood were performed in a tubing loop model. The experimental model is a modification of a model for testing biomaterials that has previously been described (J. Clin. Immunol. 16, 223-230 (1996)). Tubings made of polyvinylchloride (PVC, i.d.=6.3 mm, length=300 mm) were modified with immobilized heparin according to a method developed by Corline Systems AB (Uppsala, Sweden) as disclosed in international patent application no WO93/05793. Briefly, the polymer surface is modified with a high molecular weight amine compound to add primary amine groups to the surface. A soluble conjugate prepared by covalent binding of approximately 60 mol of heparin per mol of a straight-chained polyallylamine is irreversibly bonded onto the amine surface of the tubings. This procedure results in a total surface concentration of heparin of approximately 0.5 μg/cm^2. By using such heparin modified tubings it is possible to incubate the tubings with non-anticoagulated fresh human blood in a rocking device at 37° C. for one hour with only moderate activation of blood (c.f. control column in Table 1 A and 1 B below). Unmodified tubings will invariably induce complete clotting at these experimental conditions. Addition of human islets or porcine adult or fetal islets lead to some remarkable observations. Complete clotting invariably occurred with a total loss of platelets, a sharp increase in the formation of TAT and a very significant increase in the markers of the early contact phase (FXIIa and FXIa) of coagulation (C.f. Table 1 A and 1 B).
(§2) Sixty ml of non-anticoagulated blood was collected from healthy blood donors using heparin-coated equipment. U-shaped tubings with a total volume of nine ml were filled with eight ml of blood immediately followed by addition of isolated human islets or porcine adult or porcine fetal islets (500 IEQ). The tubings were then closed into loops using connectors of titanium furnished with immobilised heparin. The tubing loops were placed vertically in a rocking device and the complete apparatus was placed in an incubator at 37° C. for up to sixty minutes. At the end of the rocking period blood was collected in EDTA and the number of cells were counted in a automatic cell counter. The blood samples were then centrifuged at 4° C. (3290×g, 20 min) and EDTA plasma was collected and immediately put at −70° C. Islets retrieved after blood perifusion were prepared for immunohistochemistry.

[2] = tested on: adult porcine islets in fresh human blood; assay: Tubing loop model: adult porcine islet perifusion with fresh human blood; parameters: FNIIa-AT / TAT: unit not given here; details: for Platelets: blood supplemented with additive, Mean SE(M); for TAT: thrombin-antithrombin
Experimental: as §1, §2

[3] = tested on: platelets in platelet rich plasma (PRP); assay: Islet-induced platelet aggregation in platelet rich plasma (aggregometer); details: agent added to PRP before islets
Experimental: Platelets in platelet rich plasma (PRP) and gel filtered platelets were tested in an aggregometer. Islets were added to PRP and thereafter analysed in the aggregometer. It was shown that the islets induced aggregation of the platelets (FIG. 1) and that platelets number in the sample were reduced from 375×10^9 to 236×10^9. If purified platelets without plasma proteins were used in combination with islets no aggregation and reduction in the platelet count were observed. In attempts to identify the mechanism behind the induced aggregation, an RGDS tetrapeptide to inhibit integrin binding and a monoclonal antibody against Fc receptors on platelets were used.

[4] = after 60 min adult porcine islet perifusion

## heparin
[1]; blood supplemented with additive
  Platelets: 114 ± 17 ×10^9
[1]
  C3a: 565 ± 143.6 ng/mL
  C5b-9: 147 ± 39.6 AU/mL
  FXIIa-AT: 5.4e-06 ± 1.7e-06 M
  FXIa-AT: 3.4e-07 ± 1.2e-07 M
  Lymph.: 1.60 ± 0.20 ×10^9
  Mono.: 0.28 ± 0.06 ×10^9
  Neutra.: 2.56 ± 0.43 ×10^9
[1]; thrombin-antithrombin
  TAT: 4467 ± 2285
[2]; [4]
  C3a: 486 ± 139 ng/mL
  C5b-9: 82 ± 22 AU/mL
  FXIa-AT: 0.53 ± 0.26 µM
  Lymphcytes: 1.88 ± 0.11 ×10^9
  Monocytes: 0.35 ± 0.05 ×10^9
  Neutrophils: 3.00 ± 0.19 ×10^9
  Platelets: 145 ± 13.0 ×10^9
  TAT: 505 ± 162
[2]; in words, summary of Tables 1A and 1B
  clotting: prevented clotting
[2]; in words, summary of Tables 1A and 1B, listed as Soluble heparin
  platelet count and generation of TAT: remarkable improvement
[2]; in words, summary of Tables 1A and 1B, listed as soluble heparin
  platelet count and generation of TAT: remarkable improvement in preservation of the number of platelets and reduced generation of TAT

## RGDS [RGDS peptide]
[3]; FIG. 2
  consumption of platelets when islets were added to PRP: totally abolished
[3]; FIG. 2, FIG. 3
  aggregation of platelets when islets were added to PRP: totally abolished

B1: C1-INA: the complement inhibitor C1 inactivator (C1-INA) (protein, UniProt P05155 23-500, looked up)
Plasma protease C1 inhibitor: NPNATSSSSQDPESLQDRGEGKVATTVISKMLFVEPILEVSSLPTTNSTTNSATKITANTTDEPTTQPTTEPTTQPTIQPTQPTTQLPTDSPTQPTTGSFCPGPVTLCSDLESHSTEAVLGDALVDFSLKLYHAFSAMKKVETNMAFSPFSIASLLTQVLLGAGENTKTNLESILSYPKDFTCVHQALKGFTTKGVTSVSQIFHSPDLAIRDTFVNASRTLYSSSPRVLSNNSDANLELINTWVAKNTNNKISRLLDSLPSDTRLVLLNAIYLSAKWKTTFDPKKTRMEPFHFKNSVIKVPMMNSKKYPVAHFIDQTLKAKVGQLQLSHNLSLVILVPQNLKHRLEDMEQALSPSVFKAIMEKLEMSKFQPTLLTLPRIKVTTSQDMLSIMEKLEFFDFSYDLNLCGLTEDPDLQVSAMQHQTVLELTETGVEAAAASAISVARTLLVFEVQQPFLFVLWDQQHKFPVFMGRVYDPRA
[2]; [4]
  C3a: 1094 ± 78 ng/mL
  C5b-9: 183 ± 29 AU/mL
  FNIIa-AT: 19.65 ± 0.45
  FXIa-AT: 2.95 ± 0.15
  Lymphcytes: 1.23 ± 0.38 ×10^9
  Monocytes: 0.15 ± 0.01 ×10^9
  Neutrophils: 0.41 ± 0.13 ×10^9
  Platelets: 4 ± 0 ×10^9
  TAT: 30250 ± 3450
[2]; in words, summary of Table 1B
  complement activation: reduced complement activation
  effect on the coagulation parameters: no detectable effect
